In test [1] the test system is human-derived Caco-2 cells. In words: In vitro transwell screening in Caco-2 cells, barrier disrupted by Clostridium difficile toxin (TEER and FITC-dextran permeability). The test is classed as cell-based. The text has this: FIG. 20A-20B. In vitro screening of metabolites effective against leaky gut. FIG. 20A, Diagram of the in vitro transwell method used to evaluate efficacy of metabolites in protecting the leaky gut in human-derived Caco-2 cells. The luminal compartment represents the food side, and the basolateral the blood side. FIG. 20B, Transepithelial electrical resistance (TEER) measurements, and FITC-dextran measurements, evaluate the leakiness of the tight junction that regulates the pore (top) and leak (bottom) pathways of the gut. Ions (red), small molecules (blue), FITC-dextran (orange).
FIG. 21A-21D. Efficacy of tryptophan and vitamin B3 metabolites in protecting the gut barrier in vitro. FIG. 21A, TEER measurements of metabolites placed on luminal side of transwells for 72 hours. After 48 hours, the barrier was disrupted by the toxin of clostrium difficile (Cdiff). FIG. 21B, Integrated results of area under the curve using data from FIG. 21A. FIG. 21C, FITC-dextran permeability analysis of metabolites applied luminally. FIG. 21D, FITC-dextran permeability analysis of metabolites applied basolaterally.
FIG. 22A-22B. Efficacy of microbiota-derived indole metabolites in protecting the gut barrier. FIG. 22A, Integrated results of TEER measurements of metabolites placed on luminal side of transwells for 72 hours. After 48 hours, the barrier was disrupted by the toxin of clostrium difficile (Cdiff) FIG. 22B, FITC-dextran permeability analysis of metabolites from FIG. 22A applied luminally.
To perform in vitro screening of the metabolites effective against leaky gut, an in vitro transwell method was used. (FIG. 20A) The efficacy of these metabolites in protecting the leaky gut was analyzed in human-derived Caco-2 cells. Transepithelial electrical resistance (TEER) measurements evaluates the leakiness of the tight junction that regulates the pore (FIG. 20B, top) and leak (FIG. 20B, bottom) pathways of the gut. The higher the TEER, the less permeable the junction is to the movement of ions and small molecules. FITC-dextran is a large polysaccharide with a fluorescent moiety, typically used as a probe to assess the leakiness of the tight junction to large molecules like dextran. The faster the movement of FITC-dextran from lumen to blood, the greater the permeability.
(FIG. 21A) There was no effect of these metabolites on TEER when applied by themselves. After 48 h, the barrier was disrupted by the toxin of a common “bad” bacteria Clostridium difficile (Cdiff). TEER plummeted with this toxin (TOX, red line) compared to control (Veh, blue line). […] (FIG. 21A)
Background: Caco-2 monolayers are a common model of the intestinal barrier.

Another test relates to ZO-1 (Tjp1) and Ocln. Put plainly: Intestinal organoids treated with LPS and metabolites: tight junction (TJ) expression, RT-qPCR and immunostaining. The test is classed as cell-based, mouse. To be noted: for gene expression of Ocln: ex vivo, in the presence of the barrier disruptor; for TJ expression at the protein and mRNA levels: in the presence of LPS (1 μg/mL), 48 hr. The method, then:
Intestinal organoids were isolated as previously described (Das et al., 2015; Pearce et al., 2018). Briefly, crypts were isolated from small intestine of conventional house C57BL/6 male mice (Taconic Laboratories, Hudson, NY) by shaking in isolation buffer (2 mM EDTA in PBS), then, crypts were harvested, processed, and suspended in crypt culture medium (CCM), which consisted of advanced DMEM/F12 (Life Technologies, Carlsbad, CA) supplemented with serum-free B27 (1:50; Life Technologies), N2 (1:100; Life Technologies), N-acetylcysteine (1 mM; Sigma-Aldrich, St. Louis, MO), recombinant murine epithelial growth factor (EGF, 50 ng/ml; Peprotech, Rocky Hill, NJ), Noggin (100 ng/ml; Peprotech), R-Spondin (500 ng/ml; Peprotech), Glutamax-I supplement (1:100; Life Technologies), penicillin/streptomycin (500 μg/ml; Life Technologies), and HEPES ([…]; Life Technologies). Crypts were resuspended in 70% Matrigel (density ˜450 crypts per dome, 2 domes per well in 24-well plate) and allowed to solidify at 37° C. for 20 min. CCM (1.5 mL) was then added to each well. Cultures were incubated in a humidified incubator at 37° C., and CCM was changed daily. Intestinal organoid treatment with LPS and metabolites
We had 2 series of metabolite-treated organoid experiments, i.e., 1) organoid from conventional C57BL6 mice and 2) Ocln KO and littermate WT control as a gift from Prof. Jerrold Turner (Harvard University). […] Seeding is designated as day 0. On day 3 of culture, the existing media in the wells were completely removed before adding treatments. LPS (1 μg/mL) with or without metabolites, i.e., IPA (0.1 mM) (Li et al., 2021), IAM (200 μM) (Vyhlidalova et al., 2020), MNA (12 ng/ml) (Liu et al., 2015), CARN (20 mM) (Boldyrev et al., 2013) or ASA (1 μM) (Erez et al., 2011) were each added in CCM at known physiological concentrations, incubated for 48 hours, thereafter, organoid was harvested for RNA extraction, and paraformaldehyde fixation for immunostaining.
Total RNA was extracted from the intestinal organoids using a commercially available kit (RNeasy Microkit; Qiagen, MD, Cat. #74004) following manufacturer's instructions. mRNA samples were converted to cDNA using Bio-Rad's iScript Reverse Transcription Supermix for RT-qPCR (Bio-Rad Laboratories, Hercules, CA, Cat. #1708840). cDNA was then used for RT-qPCR (Mx3000P. Stratagene, La Jolla, CA) to analyze several genes using Maxima SYBR Green qPCR Master Mix (Thermo Fisher Scientific, Waltham, MA) and primers (Integrated DNA Technologies, Coralville, IA). Thermal profile for three-step cycling was 10 min at 95° C. for initial denaturation; then 40 cycles of 15 sec at 95° C. for denaturation, 30 sec at 65° C. for annealing, and 30 sec at 75° C. for extension. Primers used are as follows: β-actin (Actb), forward 5′-[…]-3′ (SEQ ID NO: 5), reverse 5′-[…]-3′ (SEQ ID NO: 6); ZO-1 (Tjp1), forward 5′-[…]-3′ (SEQ ID NO: 7), reverse 5′-[…]-3′ (SEQ ID NO: 8), Ocln, forward 5′-[…]-3′ (SEQ ID NO: 9), reverse 5′-[…]-3′ (SEQ ID NO: 10); Lyz1, forward 5′-ATGGCTACCGTGGTGTCAAG-3′ (SEQ ID NO: 11), reverse 5′-CGGTCTCCACGGTTGTAGTT-3′ (SEQ ID NO: 12); Tff3, forward 5′-TAATGCTGTTGGTGGTCCTG-3′ (SEQ ID NO: 13), reverse 5′-CAGCCACGGTTGTTACACTG-3′ (SEQ ID NO: 14). All samples were normalized to β actin expression. Gene expression levels are depicted as fold change relative to the control group.
Immunocytochemistry followed earlier work (Pearce et al., 2018). Briefly, organoids were extracted from Matrigel by using cell recovery solution (Corning, Cat. No. 354253), processed then fixed in 4% paraformaldehyde for 15 min and dehydrated with 70% ethanol and kept in 4° C. until embedded in paraffin. On the day of embedding, organoids were gently spun down to a pellet (250 g for 5 min), then the supernatant was removed, the pellet resuspended in agarose and embedded in paraffin. […]

For `NC(=O)Cc1c[nH]c2ccccc12` [Indole-3-acetamide, indole-3-acetamide], in test [1] (applied to the lumen, TOX), the “TEER, indole metabolites (FIG. 22A)” value is “clearly protective against TOX-induced decreases in TEER”. For the same molecule, in the test on ZO-1 (Tjp1) and Ocln, the “gene expression of Ocln” value is “increased gene expression of Ocln”; the “TJ expression at the protein and mRNA levels” value was “increased TJ expression”.

For the molecule `C[n+]1cccc(C(N)=O)c1` [Methylnicotinamide, 1-methynicotinamide], the “integrated TEER (area under the curve, FIG. 21B)” value in test [1] (luminal, C. difficile toxin) was “protected the cells from barrier disruption by TOX”. The “TEER after C. difficile toxin (FIG. 21A)” value in test [1] (metabolites on luminal side, toxin after 48 h) is given as “best at preventing the toxin-induced disruption of the barrier”. Besides, in the test on ZO-1 (Tjp1) and Ocln, the “gene expression of Ocln” value is “increased gene expression of Ocln”; the “TJ expression at the protein and mRNA levels” value is on record as “increased TJ expression”.

(Values after patent publication US20240350456A1, “COMPOSITIONS AND METHODS FOR DIAGNOSING AND TREATING INFLAMMATORY CONDITIONS” (RUTGERS, THE STATE UNIVERSITY OF NEW JERSEY, priority 2023, published 2024).)
